Here are results for one compound from article PMC11585924, “Direct measurements of neurosteroid binding to specific sites on GABAA receptors” (British journal of pharmacology, 2024).

SMILES strings stand for the structures. Entries after “also recorded” stand apart in the source; their conditions may differ.

Experiment [1] concerns the target T1, ELIC-α1^W246LGABAAR (Homo sapiens, UniProt P14867, W273L). Description: biochemical. The experiment is classed as binding. As for the experimental part: ELIC-α1GABAAR was expressed and purified according to a previously published protocol ([Q. Chen et al., 2018]). The purified protein was aliquoted and stored at −80°C. Mutagenesis was performed as described in previous reports ([Kinde et al., 2016]) by oligonucleotide-directed mutagenesis using Phu polymerase (Thermo Fisher Scientific, Waltham, MA, USA) verified by sequencing. ELIC-α1GABAAR was expressed in OverExpress™ C43(D3) E. coli, derived from Rosetta™(DE3) cells under double selection with kanamycin and chloramphenicol for ELIC-α1GABAAR.
One hundred microlitres of purified ELIC-α1GABAAR (0.3 μM in Buffer A + 0.015% DDM) was transferred into a 50-μl window quartz cuvette (Starna Cells, Atascadero, CA, USA), which was placed in a cuvette holder maintained at 4°C. […] Two microlitres of NaI (AK Scientific, Union City, CA, USA; 5-M stock prepared in 0.1-Mm sodium hydrosulfite [Sigma-Aldrich, St. Louis, MO, USA]) was added to the protein (final concentration = 100 mM) and incubated for 10 min to reduce the fluorescence emission from hydrophilic tryptophans. To measure the concentration–dependent effects of NS on tryptophan fluorescence, 1 μl of NS from each 100× stock solution was sequentially added to the NaI-equilibrated protein and thoroughly mixed to achieve concentrations from 0.01 to 50 μM. […]

Experiment [2] has as its target T2, ELIC-α1GABAAR (Homo sapiens, UniProt P14867). The experiment is classed as binding. As for the experimental part: (§1) One hundred microlitres of ELIC-α1GABAAR (0.3 μM) was transferred into a 50-μl window quartz cuvette maintained at 4°C, and NaI was added to the protein sample to a final concentration of 100 mM and incubated for 10 min. MQ290 was then added at a concentration of 3 μM for 3α-OH NS inhibition curves or 1 μM for 3β-OH NS inhibition curves and incubated for 30 min. One-microlitre aliquots of 3α-OH and 3β-OH NS from their corresponding stock solutions (prepared in Buffer A + 0.015% DDM) were added to achieve concentrations between 0.01 and 30 μM. The background emission spectra of ligands alone were obtained for each ligand concentration in the absence of protein and were subtracted from the protein-ligand emission spectra to yield background subtracted data. The MQ290 FRET spectra for different ligand concentrations were estimated using the method described above. The 370-nm intensities of the FRET spectra were plotted against ligand concentration and fitted to a four-parameter logistic curve to obtain IC50 data (GraphPad Software version 9.4.0, San Diego, CA). Ki values were calculated using the relationship: Ki=IC50/1+LT/Kd
where LT is the concentration of MQ290 and Kd was determined from the MQ290 binding curve.

Experiment [3] has as its target T1, ELIC-α1^W246LGABAAR. The experiment is described as follows: Inhibition of MQ290 FRET by NS in W246L receptors. The experiment is classed as binding. The following applies: 30 μM NS; MQ290 1 μM. As to the method:
as §1

Experiment [4] has as its target T2, ELIC-α1GABAAR. The experiment is described as follows: KK200 photolabelling competition, middle-down MS. The experiment is classed as binding. The following applies: 3 μM KK200, 30 μM competitor. As to the method: The synthesis of the NS photolabelling reagent KK200 is detailed in previous reports ([W. W. L. Cheng et al., 2018]; [Jiang et al., 2016]). […] The samples were then irradiated in a quartz cuvette for 5 min, using a photoreactor emitting light at >320 nm ([Germann et al., 2021]). Sample preparation for tryptic digestion and analysis by LC–MS was performed as previously described ([Sugasawa et al., 2019]). Peptides were separated on a home-packed PLRP-S (Agilent, Santa Clara, CA, USA) column (10 cm × 75 μm, 300 Å) using a 135-min gradient from 10% to 90% acetonitrile and introduced to an Orbitrap-Elite mass spectrometer (Thermo Fisher Scientific, Waltham, MA, USA; RRID:SCR_020548) at 800 nl·min^−1 with a nanospray source. MS acquisition was set as an MS1 Orbitrap scan (resolution of 60,000) followed by top 20 MS2 Orbitrap scans (resolution of 15,000) using data-dependent acquisition and exclusion of singly charged precursors. Fragmentation was performed using high-energy dissociation with normalized energy of 35%. Analysis of data sets was performed using Xcalibur (Thermo Fisher Scientific, Waltham, MA, USA; RRID: SCR_014593) to manually search for TM1, TM2, TM3 or TM4 tryptic peptides with or without NS photolabelling modifications. Photolabelling efficiency was estimated by generating extracted chromatograms of unlabelled and labelled peptides, determining the area under the curve, and calculating the (area of labelled peptide/(area of unlabelled + area of labelled peptide). MS2 spectra of photolabelled TMD peptides were analysed by manual assignment of fragment ions with and without photolabelling modification.

For experiment [5], the target named is α1β3 GABAA receptors. More on the design: method as in Tateiwa et al., 2023. The following applies: ref Tateiwa et al., 2023; read-out: apparent Kd; cited from earlier work.

T2 sequence (P14867 other isoform, or with tags, fused parts or gaps): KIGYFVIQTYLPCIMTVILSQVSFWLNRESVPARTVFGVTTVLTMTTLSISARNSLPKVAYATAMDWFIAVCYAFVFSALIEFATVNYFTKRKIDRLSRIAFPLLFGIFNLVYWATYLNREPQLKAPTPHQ
T2 sequence (P0C7B7 1-198, further chain): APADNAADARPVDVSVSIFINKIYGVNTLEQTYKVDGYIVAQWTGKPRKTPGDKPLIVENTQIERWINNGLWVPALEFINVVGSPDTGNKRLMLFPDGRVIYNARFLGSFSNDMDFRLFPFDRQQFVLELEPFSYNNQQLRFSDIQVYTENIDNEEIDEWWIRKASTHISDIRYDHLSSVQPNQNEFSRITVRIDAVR
T1 sequence (P14867 other isoform, or with tags, fused parts or gaps W273L): as the sequence (P14867 other isoform, or with tags, fused parts or gaps) above, with W25L counted along it
T1 sequence (P0C7B7 1-198, further chain): as the sequence (P0C7B7 1-198, further chain) above

Turning to `CC(=O)[C@H]1CC[C@H]2[C@@H]3CC[C@H]4C[C@H](O)CC[C@]4(C)[C@H]3CC[C@]12C` [AlloP, allopregnanolone], in experiment [1], the midpoint of inhibition, the IC50, lay at 0.5 ± 0.21 µM. Moreover, in experiment [2] (3α-OH NS, MQ290 3 μM), the Hill slope is recorded as −1.89 ± 0.26. For the same compound, the “mechanism of inhibition of MQ290 binding” value in experiment [2] (MQ290 binding curves with 3×Kd and 30 μM NS) was “competitive interaction”. In addition, in experiment [3], the “inhibition of remaining MQ290 FRET signal in W246L” value was “reduced by neither”. The “prevention of KK200 photolabelling of TM3 (Y309)” value in experiment [4] is listed as “significantly different than control; also recorded: prevented”. The Kd in experiment [5] was 0.1 ± 0.05 µM.

The IC50 is the concentration needed to halve the response being measured. A higher IC50 goes with weaker potency. Broadly, the Hill slope is a measure of the steepness of the concentration-response curve.
